Test system: Hep G2.2.15 cells
Assay: Cell viability by MTT, Hep G2.2.15 cells
Type: cell-based, human
Experimental: The Hep G2.2.15 cells were seeded at 3×10^4 cells/well into 96-well culture plates and incubated at 37° C. in 5% CO2 overnight. After 3 to 4 days, the confluent cultures were cultured at 37° C. for another 3 to 5 days for HBV surface antigen (HBsAg) and HBV e-antigen (HBeAg) induction. Various concentrations of test articles including the positive control substance were then added during the 72 hrs induction period. The cultured media were harvested by centrifugation and the levels of HBsAg and HBeAg were analyzed with commercial enzyme-linked immunosorbant assay (ELISA) kits for HBsAg qualitative testing (General Biologicals Corp., SURASE B-96 (TMB)) and that for HBeAg qualitative testing (General Biologicals Corp., EASE BN-96 (TMB)), respectively. The activity expressed in terms of the efficiency of antigen secretion in percentage (hereinafter referred to as “relative activity”) was calculated with the equation Relative activity (%)=The ratio of the amount of antigen in the cultured medium with treatment to that without treatment×100.
Cell viability was assayed by the MTT method.

CC(C)(C)C(=O)OCOP(=O)(COCCn1cnc2c(N)ncnc21)OCOC(=O)C(C)(C)C [Adefovir, Adefovir dipivoxil]
MTT (+) drug/(−) drug (Ratio), cytotoxicity (0.2 uM): 0.961 | MTT (+) drug/(−) drug (Ratio), cytotoxicity (1 uM): 0.953
